The values below come from patent US10428066B2, “Imidazo[4,5-C]pyridine and pyrrolo[2,3-C]pyridine derivatives as SSAO inhibitors” (PROXIMAGEN, LLC, priority 2013, dated 2019).

In series [1] the target is purified recombinantly expressed human SSAO (Homo sapiens (Human), UniProt Q16853). The experiment in a line: SSAO enzyme inhibition assay (HRP-coupled hydrogen peroxide detection or 14C-benzaldehyde detection, benzylamine substrate). The format is biochemical. Particulars: human recombinant SSAO, RT. Summed up: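 Two read-outs at room temperature, each after ~15 min enzyme–inhibitor pre-incubation: 14C-benzaldehyde from 40 uM labelled benzylamine with 10 ug/ml enzyme, 1 h, PBS; or HRP-coupled H2O2 detection using 100 uM benzylamine, 1 ug/ml enzyme, pH 7.4 phosphate, read kinetically 1-2 h. Four-parameter logistic IC50s.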

In series [2] the target is human ether a go-go related gene (hERG) K+ channel (Homo sapiens (Human), UniProt Q12809). The experiment in a line: hERG assay, IonWorks patch clamp electrophysiology. The format is cell-based. The note with it: Chinese Hamster Lung cell line stably expressing hERG, maximum assay concentration 11 uM. On the procedure:
Compounds of the invention were tested for inhibition of the human ether a go-go related gene (hERG) K^+ channel using IonWorks patch clamp electrophysiology. 8 Point concentration-response curves were generated on two occasions using 3-fold serial dilutions from the maximum assay concentration (11 uM). Electrophysiological recordings were made from a Chinese Hamster Lung cell line stably expressing the full length hERG channel. Single cell ion currents were measured in the perforated patch clamp configuration (100 ug/mL amphoterocin) at room temperature using an IonWorks Quattro instrument. The internal solution contained 140 mM KCl, 1 mM MgCl2, 1 mM EGTA and 20 mM HEPES and was buffered to pH 7.3. The external solution contained 138 mM NaCl, 2.7 mM KCl, 0.9 mM CaCl2, 0.5 mM MgCl2, 8 mM Na2HPO4 and 1.5 mM KH2PO4, and was buffered to pH 7.3. […] This sequence was repeated 5 times at a frequency of 0.25 Hz. Currents were measured from the tail step at the 5th pulse, and referenced to the holding current. Compounds were incubated for 6-7 min prior to a second measurement of the hERG signal using an identical pulse train. A minimum of 17 cells were required for each plC50 curve fit. A control compound (quinidine) was used (see Table 20 below).

Sequence of purified recombinantly expressed human SSAO (Q16853 29-763): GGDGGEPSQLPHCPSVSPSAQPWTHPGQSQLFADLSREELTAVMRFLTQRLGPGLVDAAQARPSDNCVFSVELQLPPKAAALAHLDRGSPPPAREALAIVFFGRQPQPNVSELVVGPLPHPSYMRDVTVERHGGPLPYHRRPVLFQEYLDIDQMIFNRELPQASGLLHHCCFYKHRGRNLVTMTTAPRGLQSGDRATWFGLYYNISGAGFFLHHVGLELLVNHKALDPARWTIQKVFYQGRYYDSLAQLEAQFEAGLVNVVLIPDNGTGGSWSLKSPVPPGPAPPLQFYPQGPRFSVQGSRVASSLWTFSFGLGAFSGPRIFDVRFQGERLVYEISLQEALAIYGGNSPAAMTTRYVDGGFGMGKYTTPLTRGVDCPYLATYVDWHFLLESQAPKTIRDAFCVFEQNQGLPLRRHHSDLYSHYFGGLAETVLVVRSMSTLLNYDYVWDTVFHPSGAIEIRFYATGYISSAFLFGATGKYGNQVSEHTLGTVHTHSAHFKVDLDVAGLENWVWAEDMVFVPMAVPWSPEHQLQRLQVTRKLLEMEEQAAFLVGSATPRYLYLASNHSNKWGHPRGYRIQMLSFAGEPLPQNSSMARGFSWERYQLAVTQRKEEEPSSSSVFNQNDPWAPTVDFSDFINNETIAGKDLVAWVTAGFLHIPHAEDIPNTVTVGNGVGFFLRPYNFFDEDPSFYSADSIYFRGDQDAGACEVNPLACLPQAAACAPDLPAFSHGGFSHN
Sequence of human ether a go-go related gene (hERG) K+ channel (Q12809 whole entry): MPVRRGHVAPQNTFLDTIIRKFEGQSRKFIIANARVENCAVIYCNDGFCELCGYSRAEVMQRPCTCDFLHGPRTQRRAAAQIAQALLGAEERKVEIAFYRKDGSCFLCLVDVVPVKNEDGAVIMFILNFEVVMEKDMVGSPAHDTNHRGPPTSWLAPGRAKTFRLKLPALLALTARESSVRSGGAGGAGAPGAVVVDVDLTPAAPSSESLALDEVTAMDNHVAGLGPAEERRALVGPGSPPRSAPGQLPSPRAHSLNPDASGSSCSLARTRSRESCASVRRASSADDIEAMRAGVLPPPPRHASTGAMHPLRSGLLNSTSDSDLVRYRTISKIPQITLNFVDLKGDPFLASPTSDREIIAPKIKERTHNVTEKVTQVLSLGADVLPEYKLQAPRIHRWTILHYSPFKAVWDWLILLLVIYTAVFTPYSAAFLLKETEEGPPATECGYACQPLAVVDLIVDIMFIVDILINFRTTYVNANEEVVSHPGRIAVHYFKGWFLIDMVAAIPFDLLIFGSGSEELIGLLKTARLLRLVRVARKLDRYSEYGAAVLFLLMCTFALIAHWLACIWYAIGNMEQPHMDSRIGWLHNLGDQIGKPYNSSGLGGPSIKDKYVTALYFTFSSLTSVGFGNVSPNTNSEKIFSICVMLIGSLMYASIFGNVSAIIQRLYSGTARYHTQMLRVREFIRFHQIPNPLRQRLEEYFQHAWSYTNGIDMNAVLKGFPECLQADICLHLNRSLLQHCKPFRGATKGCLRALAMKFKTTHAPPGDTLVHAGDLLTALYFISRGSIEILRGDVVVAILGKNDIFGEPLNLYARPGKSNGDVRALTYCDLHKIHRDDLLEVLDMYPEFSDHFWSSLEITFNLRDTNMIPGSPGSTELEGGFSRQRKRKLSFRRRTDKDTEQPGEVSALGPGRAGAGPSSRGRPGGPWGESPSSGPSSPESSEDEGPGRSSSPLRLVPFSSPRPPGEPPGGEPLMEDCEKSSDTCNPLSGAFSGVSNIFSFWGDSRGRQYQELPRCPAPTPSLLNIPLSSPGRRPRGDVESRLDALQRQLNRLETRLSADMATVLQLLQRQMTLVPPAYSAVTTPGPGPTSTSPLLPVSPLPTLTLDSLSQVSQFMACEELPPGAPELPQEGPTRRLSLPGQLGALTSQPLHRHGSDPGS

For the compound `O=c1cc(-c2cc3ccncc3n2-c2ccc(Cl)cc2)cc[nH]1` [Example 142, 4-[1-(4-Chlorophenyl)-1H-pyrrolo[2,3-c]pyridin-2-yl]-1,2-dihydropyridin-2-one], the IC50 lay in the range of 0.05 to 0.2 µM in series [1] and 1 to 10 µM in series [2].
For `Clc1ccc(-n2c(-c3ccncc3Cl)cc3ccncc32)cc1` [Example 153, 3-Chloro-4-[1-(4-chlorophenyl)-1H-pyrrolo[2,3-c]pyridin-2-yl]pyridine], the IC50 was in the range of 0.05 to 0.2 µM in series [1] and 1 to 10 µM in series [2].
Regarding `c1ccc(-n2c(-c3cnc(N4CCOCC4)nc3)cc3ccncc32)cc1` [Example 131, 4-(5-{1-Phenyl-1H-pyrrolo[2,3-c]pyridin-2-yl}pyrimidin-2-yl)morpholine], the IC50 fell in the range of 0.2 to 1.2 µM in series [1] and 1 to 10 µM in series [2].
